Laboratory results from paper PMC6276509, “Evaluation of Tyrosinase Inhibitory, Antioxidant, Antimicrobial, and Antiaging Activities of Magnolia officinalis Extracts after Aspergillus niger Fermentation” (BioMed Research International, 2018).
≈ marks a conversion by molar mass, not a printed value.

Target: T1, Mushroom tyrosinase
T1 construct: gene PPO3; commercial native mushroom tyrosinase (Sigma), isoenzyme mixture
Test: absorbance at […] nm, […] min
Format: biochemical
Details: L-tyrosine substrate (1 mL of 100 mg/L); sodium phosphate buffer; DMSO stock; alpha or beta anomer not stated

IC50: 56 ± 12 µg/mL (≈ 206 µM)
SMILES: OC[C@H]1O[C@@H](Oc2ccc(O)cc2)[C@H](O)[C@@H](O)[C@@H]1O [arbutin]
